Source: patent publication US20240226026A1, “BRANCHED TAIL LIPID COMPOUNDS AND COMPOSITIONS FOR INTRACELLULAR DELIVERY OF THERAPEUTIC AGENTS” (ModernaTX, Inc., priority 2021, published 2024)

What was measured:
[1] = Apparent pKa of lipid nanoparticles; assay type: physicochemical; settings: for Apparent pKa 95% CI: Table 2b, 95% confidence interval; for Apparent pKa: Table 2a, nanoparticles comprising the lipid
[2] = tested on: CD-1 mice; test: Expression of hEPO induced by LNPs (mRNA encoding hEPO) administered to mice; assay type: in vivo; settings: Table 4a, serum, 6 h after intravenous injection; for Avg. hEPO Concentration (mIU/mL)* ± Avg. SD: ELLA Simple Plex Assay
Experimental: In some embodiments, hEPO concentrations were determined using an […] (ELLA) Simple Plex Assay (ProteinSimple) with a Human Erythroprotein cartridge. Standards for this assay are calibrated according to the 2. IRP WHO preparation. Nanoparticle compositions including mRNA are useful in the evaluation of the efficacy and usefulness of various formulations for the delivery of therapeutic and/or prophylactics. Higher levels of protein expression induced by administration of a composition including an mRNA will be indicative of higher mRNA translation and/or nanoparticle composition mRNA delivery efficiencies. As the non-RNA components are not thought to affect translational machineries themselves, a higher level of protein expression is likely indicative of a higher efficiency of delivery of the therapeutic and/or prophylactic by a given nanoparticle composition relative to other nanoparticle compositions or the absence thereof.
To assess potency of expression of lipids of the disclosure, the protein expression (hEPO) following administration of a nanoparticle comprising a lipid of the disclosure (e.g., a loaded LNP) to mice was measured.
Lipid nanoparticles (LNPs) including DSPC as a phospholipid, cholesterol as a structural lipid, PL-II (e.g., PEG-1) as a PEG lipid, a lipid according to Formula (I-1), (I), (I-A), (I-A1), (I-A2), (I-A3), or (I-A4), and an mRNA encoding hEPO were intravenously administered to CD-1 mice. The concentration of hEPO in serum was tested at 6 h after injection.

[3] = Lipid nanoparticle surface hydrophobicity by Generalized Polarization by Laurdan (N-GP); assay type: physicochemical; settings: for LNP surface hydrophobicity (N-GP*): Table 2b, nanoparticles comprising the lipid; for Lipid nanoparticle surface hydrophobicity (N-GP*): Table 2a, Laurdan, higher N-GP indicates a less polar surface
Excerpt: Surface hydrophobicity of nanoparticles of the disclosure can be measured by Generalized Polarization by Laurdan (GPL). In this method, Laurdan, a fluorescent aminonaphthalene ketone lipid, is post-inserted into the nanoparticle surface and the fluorescence spectrum of Laurdan is collected to determine the normalized Generalized Polarization (N-GP). In some embodiments, nanoparticles formulated with lipids of the disclosure have a surface hydrophobicity expressed as N-GP of between about 0.5 and about 1.5. For example, in some embodiments, nanoparticles formulated with lipids of the disclosure have a surface hydrophobicity expressed as N-GP of about 0.5, about 0.6, about 0.7, about 0.8, about 0.9, about 1.0, about 1.1, about 1.2, about 1.3, about 1.4, or about 1.5. In some embodiments, nanoparticles formulated with lipids of the disclosure have a surface hydrophobicity expressed as N-GP of about 1.0 or about 1.1.

[4] = Encapsulation efficiency (% EE) of lipid nanoparticles; assay type: physicochemical; settings: nanoparticles comprising the lipid
Experimental: For nanoparticle compositions including an RNA, a QUANT-IT™ RIBOGREEN® RNA assay (Invitrogen Corporation Carlsbad, CA) can be used to evaluate the encapsulation of an RNA by the nanoparticle composition. The samples are diluted to a concentration of approximately 5 μg/mL in a TE buffer solution (10 mM Tris-HCl, 1 mM EDTA, pH 7.5). 50 μL of the diluted samples are transferred to a polystyrene 96 well plate and either 50 μL of TE buffer or 50 μL of a 2% Triton X-100 solution is added to the wells. The plate is incubated at a temperature of 37° C. for 15 minutes. The RIBOGREEN® reagent is diluted 1:100 in TE buffer, and 100 μL of this solution is added to each well. The fluorescence intensity can be measured using a fluorescence plate reader (Wallac Victor 1420 Multilablel Counter; Perkin Elmer, Waltham, MA) at an excitation wavelength of, for example, about 480 nm and an emission wavelength of, for example, about 520 nm. The fluorescence values of the reagent blank are subtracted from that of each of the samples and the percentage of free RNA is determined by dividing the fluorescence intensity of the intact sample (without addition of Triton X-100) by the fluorescence value of the disrupted sample (caused by the addition of Triton X-100).
The efficiency of encapsulation of a therapeutic and/or prophylactic describes the amount of therapeutic and/or prophylactic that is encapsulated or otherwise associated with a lipid nanoparticle (e.g., an empty LNP or a loaded LNP) after preparation, relative to the initial amount provided. The encapsulation efficiency is desired to be high (e.g., close to 100%). The encapsulation efficiency may be measured, for example, by comparing the amount of therapeutic and/or prophylactic in a solution containing a loaded LNP before and after breaking up the loaded LNP with one or more organic solvents or detergents. Fluorescence may be used to measure the amount of free therapeutic and/or prophylactic (e.g., RNA) in a solution. For the loaded LNPs formulated with lipids of the disclosure, the encapsulation efficiency of a therapeutic and/or prophylactic is at least 50%, for example 50%, 55%, 60%, 65%, 70%, 75%, 80%, 85%, 90%, 91%, 92%, 93%, 94%, 95%, 96%, 97%, 98%, 99%, or 100%. In some embodiments, the encapsulation efficiency is at least 80%. In some embodiments, the encapsulation efficiency is at least 90%. In some embodiments, the encapsulation efficiency of the therapeutic and/or prophylactic agent is between 80% and 100%.
(§1) Lipid nanoparticles (e.g., empty LNPs or loaded LNPs) including DSPC as a phospholipid, cholesterol as a structural lipid, PL-II (e.g., PEG-1) as a PEG lipid, and a lipid according to Formula (I-1), (I), (I-A), (I-A1), (I-A2), (I-A3), or (I-A4) were prepared. In some embodiments, the lipid nanoparticles further included rhodamine-DOPE as a fluorescent lipid. Tables 2a, 2b, and 3 summarize the characteristics of the formulations.

[5] = Particle size (diameter) and polydispersity index of lipid nanoparticles; assay type: physicochemical; settings: nanoparticles comprising the lipid
Experimental: A Zetasizer Nano ZS (Malvern Instruments Ltd, Malvern, Worcestershire, UK) can be used to determine the particle size, the polydispersity index (PDI) and the zeta potential of the nanoparticle compositions in 1×PBS in determining particle size and 15 mM PBS in determining zeta potential.
Lipid nanoparticles (e.g., empty LNPs or loaded LNPs) may be characterized by a variety of methods. For example, microscopy (e.g., transmission electron microscopy or scanning electron microscopy) may be used to examine the morphology and size distribution of a nanoparticle composition. Dynamic light scattering or potentiometry (e.g., potentiometric titrations) may be used to measure zeta potentials. Dynamic light scattering may also be utilized to determine particle sizes. Instruments such as the Zetasizer Nano ZS (Malvern Instruments Ltd, Malvern, Worcestershire, UK) may also be used to measure multiple characteristics of a nanoparticle composition, such as particle size, polydispersity index, and zeta potential.
as §1

[6] = Table 2a, DSPC, cholesterol, PEG lipid

Structure (SMILES) | Apparent pKa 95% CI [1] | Avg. hEPO Concentration (mIU/mL)* ± Avg. SD [2] | LNP surface hydrophobicity (N-GP*) [3] | % EE ([4]; Table 2b) | % EE ([4]; Table 3) | Diameter (nm) ([5]; Table 2b) | PDI ([5]; Table 2b) | Diameter (nm) ([5]; Table 3) | PDI ([5]; Table 3) | Apparent pKa [1] | Avg. hEPO Concentration (mIU/mL) ± Avg. SD [2] | Lipid nanoparticle surface hydrophobicity (N-GP*) [3] | % EE ([4]; Table 2a) | PDI ([5]; Table 2a) | Diameter (nm) [5, 6]
CCCCCC(CCCCC)CCOC(=O)CCCCCCCN(CCCCCCCC(=O)OCCC(CCCC)CCCC)CCCNC(=O)C1(C)CC1 [Compound 11] | 6.906 to 6.961 | 4.15E+06 ± 8.08E+04 mIU/mL | 1.01 | 18.2% | 34.3% | 200.1 nm | 0.199 | 117 nm | 0.262 | – | – | – | – | – | –
CCCCCC(CCCCC)CCOC(=O)CCCCCCCN(CCCCCCCC(=O)OCCC(CCCC)CCCC)CCCNS(=O)(=O)CC [Compound 12] | – | – | – | – | 94.1% | – | – | 109.2 nm | 0.155 | 6.669 | 5.83E+06 ± 1.13E+05 mIU/mL | 1.04 | 80.9% | 0.248 | 120.2 nm
CCCCCC(CCCCC)CCOC(=O)CCCCCCCN(CCCCCCCC(=O)OCCC(CCCC)CCCC)CCCNS(=O)(=O)Cc1ccon1 [Compound 13] | 6.641 to 6.731 | – | 1.09 | 73.4% | 96.1% | 98.5 nm | 0.164 | 76.1 nm | 0.118 | 6.688 | 1.41E+07 ± 2.72E+05 mIU/mL | 1.08 | 61.0% | 0.205 | 109.5 nm
CCCCCC(CCCCC)CCOC(=O)CCCCCCCN(CCCCCCCC(=O)OCCC(CCCC)CCCC)CCCNc1ncccc1N [Compound 14] | 6.808 to 6.931 | 5.96E+05 ± 9.17E+03 mIU/mL | 1.00 | 94.4% | 98.6% | 184.7 nm | 0.366 | 111.7 nm | 0.282 | – | – | – | – | – | –
CCCCCCCC(CCCCCCC)OC(=O)CCCCCCCN(CCCCCCCC(=O)OCCC(CCCC)CCCC)CCCNc1n[s+]([O-])nc1NC (centres unmarked) [Compound 15] | – | – | – | – | 97.2% | – | – | 74.2 nm | 0.212 | 6.761 | 3.74E+06 ± 1.61E+05 mIU/mL | 0.94 | 96.6% | 0.128 | 76.4 nm
CCCCCCCC(CCCCCCC)OC(=O)CCCCCCCN(CCCCCCCC(=O)OCCC(CCCC)CCCC)CCCNc1noc(N)n1 [Compound 16] | 6.344 to 6.479 | 6.19E+05 ± 1.05E+04 mIU/mL | 1.19 | 98.2% | 97.7% | 70.9 nm | 0.118 | 56.8 nm | 0.113 | – | – | – | – | – | –
CCCCCCCC(CCCCCCC)OC(=O)CCCCCCCN(CCCCCCCC(=O)OCCC(CCCC)CCCC)CCCNS(=O)(=O)CCOC [Compound 17] | – | – | – | – | 93.5% | – | – | 90 nm | 0.129 | 6.689 | 1.00E+07 ± 2.34E+05 mIU/mL | 1.02 | 77.1% | 0.128 | 89.7 nm
CCCCCCCC(CCCCCCC)OC(=O)CCCCCCCN(CCCCCCCC(=O)OCCC(CCCC)CCCC)CCCNC(=O)C1(C)CC1 [Compound 18] | 6.744 to 6.808 | 5.45E+06 ± 1.26E+05 mIU/mL | 1.05 | 18.6% | 23.9% | 144.2 nm | 0.207 | 95.9 nm | 0.174 | – | – | – | – | – | –
